# Experimental data reported in patent US8486647B2, “Neuropeptide release assay for sodium channels” (priority 2010, dated 2013).
# Where “and” joins values, the source holds several entries; their conditions need not be identical. Equal values may be shown once.
# Experiments:
# Scn9a^+/+ DRG = assay: CGRP release assay, Scn9a^+/+ DRG; type: cell-based, mouse
# Scn9a^3.1/3.1 DRG = assay: CGRP release assay, Scn9a^3.1/3.1 DRG; type: cell-based, mouse
Compound,inflammatory mix-induced release of CGRP (Scn9a^+/+ DRG),inflammatory mix-induced release of CGRP (Scn9a^3.1/3.1 DRG),CGRP released (Scn9a^+/+ DRG)
"NC1=N[C@H](O)[C@H]2[C@H]3O[C@]4(O)O[C@@H]([C@@H](O)[C@@]2(N1)[C@@H]4O)[C@]3(O)CO [TTX, Tetrodotoxin]",notably enhanced,,
CCN(CC)CC(=O)Nc1c(C)cccc1C [Lidocaine],,notably enhanced,
ProTx-II [Pro-TXII],notably enhanced,,186 ± 40 pg/mL and 126 ± 25 pg/mL
